This note sets out measurements from ChEMBL document CHEMBL1129292, “Theoretical study of inhibition of adenosine deaminase by (8R)-coformycin and (8R)-deoxycoformycin” (J Med Chem, 1996).

This test has as its target T1, Adenosine deaminase (Homo sapiens, UniProt P00813).
T1 sequence (P00813 whole entry): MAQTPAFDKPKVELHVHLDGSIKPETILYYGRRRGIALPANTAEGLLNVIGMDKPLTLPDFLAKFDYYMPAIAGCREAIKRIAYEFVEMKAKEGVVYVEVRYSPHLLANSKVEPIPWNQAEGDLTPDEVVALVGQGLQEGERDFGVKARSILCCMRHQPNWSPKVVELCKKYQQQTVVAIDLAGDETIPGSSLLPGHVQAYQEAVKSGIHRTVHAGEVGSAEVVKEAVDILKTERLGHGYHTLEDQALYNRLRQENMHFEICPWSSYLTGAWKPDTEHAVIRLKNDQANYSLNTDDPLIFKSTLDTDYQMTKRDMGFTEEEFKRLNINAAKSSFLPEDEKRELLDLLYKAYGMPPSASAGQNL
The experiment in a line: Binding affinity towards Adenosine deaminase.

A word on the Ki: it is the dissociation constant of the complex between target and ligand, obtained from inhibition or displacement. Read a high Ki as a looser hold on the target.

Regarding `OCC1OC(n2cnc3c2N=CCC[C@H]3O)[C@@H](O)[C@H]1O` (single isomer, unassigned) [CONFORMYCIN], the Ki stood at 10 pM.

For `OCC1OC(n2cnc3c2N=CCC[C@H]3O)C[C@H]1O` (single isomer, unassigned), the Ki was 2.5 pM.
